± gives the expanded uncertainty stated by the source.

For data set [1] the following is noted: 296 K; 101.33 kPa; Crystal; X-ray diffraction.
Data set [2] in a line: molar heat capacity at constant pressure. The following applies: 101.33 kPa, Crystal, Small sample (50 mg) DSC.

Consider `CC(C)(C)C(O)/C(=C\c1ccc(Cl)cc1Cl)n1cncn1` (configuration not stated) [Diniconazole], for which, in data set [1], the mass density came out at 1323 ± 7 kg/m3. The “molar heat capacity at constant pressure” value was 360.4 ± 9.1 J/K/mol in data set [2] (283.15 K); 367.41 ± 9.2 J/K/mol in data set [2] (288.15 K); 374.58 ± 9.4 J/K/mol in data set [2] (293.15 K); 381.72 ± 9.6 J/K/mol in data set [2] (298.15 K); 388.72 ± 9.8 J/K/mol in data set [2] (303.15 K); 395.47 ± 9.9 J/K/mol in data set [2] (308.15 K). The “molar heat capacity at constant pressure” value in data set [2] (313.15 K) is recorded as 401.89 ± 10 J/K/mol; in data set [2] (318.15 K), 407.93 ± 10 J/K/mol; in data set [2] (323.15 K) it was 413.6 ± 10 J/K/mol; in data set [2] (328.15 K), 418.9 ± 11 J/K/mol; in data set [2] (333.15 K), 423.89 ± 11 J/K/mol; in data set [2] (338.15 K) it was 428.65 ± 11 J/K/mol. The “molar heat capacity at constant pressure” value in data set [2] (343.15 K) is 433.27 ± 11 J/K/mol; in data set [2] (348.15 K) it was 437.91 ± 11 J/K/mol; in data set [2] (353.15 K), 442.73 ± 11 J/K/mol.
Regarding `CCCCC(O)(Cn1cncn1)c1ccc(Cl)cc1Cl` (configuration not stated), the mass density in data set [1] came out at 1331 ± 7 kg/m3. Besides, the “molar heat capacity at constant pressure” value was determined as 342.68 ± 8.7 J/K/mol in data set [2] (283.15 K); 351.02 ± 8.9 J/K/mol in data set [2] (288.15 K); 358.22 ± 9.1 J/K/mol in data set [2] (293.15 K); 364.66 ± 9.2 J/K/mol in data set [2] (298.15 K); 370.65 ± 9.4 J/K/mol in data set [2] (303.15 K); 376.44 ± 9.5 J/K/mol in data set [2] (308.15 K). The “molar heat capacity at constant pressure” value in data set [2] (313.15 K) worked out at 382.23 ± 9.7 J/K/mol; in data set [2] (318.15 K), 388.15 ± 9.8 J/K/mol; in data set [2] (323.15 K), 394.25 ± 10 J/K/mol; in data set [2] (328.15 K), 400.53 ± 10 J/K/mol; in data set [2] (333.15 K), 406.94 ± 10 J/K/mol; in data set [2] (338.15 K), 413.34 ± 10 J/K/mol. In addition, the “molar heat capacity at constant pressure” value in data set [2] (343.15 K) stood at 419.55 ± 11 J/K/mol; in data set [2] (348.15 K), 425.32 ± 11 J/K/mol; in data set [2] (353.15 K), 430.33 ± 11 J/K/mol.

Usually mass density stands for the mass of a sample divided by its volume.

Source of the values: the NIST ThermoML archive (doi:10.1016/j.jct.2016.04.001).
